This experiment has as its target T1, RMgase (recombinant alpha-galactosidase) (Rhizomucor miehei, UniProt H8Y263).
T1 construct: codon-optimised synthetic gene with XPR2 signal peptide at 5' end (vector pINA1312), secreted by Yarrowia lipolytica transformant G82; purified by DEAE-Sepharose for pH/temperature profiles
T1 sequence (H8Y263 18-751): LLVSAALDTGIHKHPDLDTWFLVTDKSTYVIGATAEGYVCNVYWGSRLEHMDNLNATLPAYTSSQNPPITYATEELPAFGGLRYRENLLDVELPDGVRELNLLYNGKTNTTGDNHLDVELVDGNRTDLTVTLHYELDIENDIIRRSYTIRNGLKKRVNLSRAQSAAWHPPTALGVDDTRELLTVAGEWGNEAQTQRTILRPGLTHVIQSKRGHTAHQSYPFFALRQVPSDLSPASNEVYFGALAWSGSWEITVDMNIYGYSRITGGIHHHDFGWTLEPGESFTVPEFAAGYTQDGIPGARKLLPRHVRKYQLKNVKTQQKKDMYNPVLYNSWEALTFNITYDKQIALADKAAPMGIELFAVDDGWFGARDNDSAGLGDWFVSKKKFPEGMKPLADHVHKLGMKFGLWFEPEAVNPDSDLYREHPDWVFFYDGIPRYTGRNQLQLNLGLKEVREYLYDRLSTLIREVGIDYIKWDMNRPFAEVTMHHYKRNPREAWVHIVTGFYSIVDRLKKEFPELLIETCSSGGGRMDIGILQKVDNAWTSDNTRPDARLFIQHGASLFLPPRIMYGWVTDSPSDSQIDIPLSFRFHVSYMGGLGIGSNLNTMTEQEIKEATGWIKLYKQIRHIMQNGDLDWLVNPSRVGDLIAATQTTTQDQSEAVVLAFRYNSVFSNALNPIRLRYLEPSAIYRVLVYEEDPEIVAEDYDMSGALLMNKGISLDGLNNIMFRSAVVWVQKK
Description: sugar hydrolysis, activity of secreted enzyme. The format is biochemical.

SMILES strings stand for the structures.

The record followed here is article PMC6722743, “Whole Conversion of Soybean Molasses into Isomaltulose and Ethanol by Combining Enzymatic Hydrolysis and Successive Selective Fermentations” (Biomolecules, 2019).

On to `OC[C@H]1O[C@H](OC[C@H]2O[C@H](OC[C@H]3O[C@H](O[C@]4(CO)O[C@H](CO)[C@@H](O)[C@@H]4O)[C@H](O)[C@@H](O)[C@@H]3O)[C@H](O)[C@@H](O)[C@H]2O)[C@H](O)[C@@H](O)[C@H]1O` [stachyose], for which the “sugar hydrolysis, activity of secreted enzyme” value is “the α-galactosidase activity using pNPG, stachyose, raffinose and melibiose as substrate”.
